Results taken from patent US10807968B2, “Substituted 2-(het)arylimidazolylcarboxyamides as pesticides” (Bayer CropScience Aktiengesellschaft, priority 2016, dated 2020).

Key:
Meloidogyne incognita = Meloidogyne incognita test; assay type: in vivo; settings: 20 ppm, after 14 days, lettuce in sand
Experimental: Meloidogyne Incognita Test
Solvent: 125.0 parts by weight of acetone
To produce a suitable active compound formulation, 1 part by weight of active compound is mixed with the stated amount of solvent and the concentrate is diluted with water to the desired concentration.
Vessels are filled with sand, active compound solution, an egg/larvae suspension of the southern root-knot nematode (Meloidogyne incognita) and lettuce seeds. The lettuce seeds germinate and the plants develop. The galls develop on the roots.
After 14 days, the nematicidal efficacy in % is determined by the formation of galls. 100% means that no galls were found; 0% means that the number of galls on the treated plants corresponds to the untreated control.

Myzus persicae [1] = test: Myzus persicae - spray test (Chinese cabbage leaf discs); assay type: in vivo; settings: 500 g/ha, after 6 days
Procedure, shortened: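 Leaf discs of Chinese cabbage carrying all aphid stages sprayed with compound formulated in acetone/DMF and water with 1000 ppm alkylaryl polyglycol ether emulsifier. Kill rate scored after 6 days as % efficacy (100% all aphids dead, 0% none).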

Myzus persicae [2] = test: Myzus persicae - oral test; assay type: in vivo; settings: 20 ppm, after 5 days
Experimental: Solvent: 100 parts by weight of acetone
Subsequently, the plates are sealed with parafilm, which a mixed population of green peach aphids (Myzus persicae) within a second microtitre plate is able to puncture and imbibe the solution through it.
After 5 days, the efficacy in % is determined. 100% means that all the aphids have been killed; 0% means that no aphids have been killed.

[3] = log P determination by HPLC on reversed-phase (C18) columns, OECD Guideline 117; assay type: physicochemical; settings: HPLC
Procedure, shortened: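 Reversed-phase C18 HPLC per OECD 117, LC-MS with a linear 10% to 95% acetonitrile gradient. Acidic method at pH 2.7 with 0.1% formic acid; neutral method at pH 7.8 with 0.001 M ammonium hydrogencarbonate.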

SMILES: CN(C(=O)c1cnc(-c2cccc3c2OCO3)n1C)c1cccnc1 [Example 83]
- nematicidal efficacy in % (formation of galls) (Meloidogyne incognita): 100%
- efficacy in % (aphids killed) (Myzus persicae [1]): 90%
- efficacy in % (aphids killed) (Myzus persicae [2]): 100%
- logp-acidic ([3]; acidic range pH 2.7, 0.1% aqueous formic acid/acetonitrile): 0.9
- logp-neutral ([3]; neutral range pH 7.8, 0.001 molar aqueous ammonium hydrogencarbonate/acetonitrile): 1.44
